Source: ChEMBL document CHEMBL5523701, “Structure-based discovery of small molecule inhibitors of FKBP51-Hsp90 protein-protein interaction” (Eur J Med Chem, 2024)

How the values were obtained:
[1] = biological target: T1, Peptidyl-prolyl cis-trans isomerase FKBP4 (Homo sapiens, UniProt Q02790); assay: Inhibition of GST-tagged human FKBP52 expressed in Escherichia coli BL21 (DE3) using NH2-EDASRMEEVD-COOH peptide as substrate preincubated for 15 mins followed by substrate addition measured after 15 mins by Alpha Screen assay
T1 sequence (Q02790 whole entry): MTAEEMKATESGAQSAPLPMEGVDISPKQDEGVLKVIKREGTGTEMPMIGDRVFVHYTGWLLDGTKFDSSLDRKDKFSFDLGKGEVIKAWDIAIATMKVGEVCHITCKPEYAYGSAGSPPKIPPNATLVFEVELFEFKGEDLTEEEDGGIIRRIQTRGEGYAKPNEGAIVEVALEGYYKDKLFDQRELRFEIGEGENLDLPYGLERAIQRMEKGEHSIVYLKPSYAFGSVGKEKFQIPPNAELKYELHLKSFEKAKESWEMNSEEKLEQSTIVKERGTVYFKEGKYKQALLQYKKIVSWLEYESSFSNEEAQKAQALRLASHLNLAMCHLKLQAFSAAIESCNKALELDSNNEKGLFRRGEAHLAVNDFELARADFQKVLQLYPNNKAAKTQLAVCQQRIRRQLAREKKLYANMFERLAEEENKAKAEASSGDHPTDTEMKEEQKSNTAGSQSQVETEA

[2] = biological target: T2, Peptidyl-prolyl cis-trans isomerase FKBP5 (Homo sapiens, UniProt Q13451); assay: Inhibition of GST-tagged human FKBP51 expressed in Escherichia coli BL21 (DE3) using NH2-EDASRMEEVD-COOH peptide as substrate preincubated for 15 mins followed by substrate addition measured after 15 mins by Alpha Screen assay
T2 sequence (Q13451 whole entry): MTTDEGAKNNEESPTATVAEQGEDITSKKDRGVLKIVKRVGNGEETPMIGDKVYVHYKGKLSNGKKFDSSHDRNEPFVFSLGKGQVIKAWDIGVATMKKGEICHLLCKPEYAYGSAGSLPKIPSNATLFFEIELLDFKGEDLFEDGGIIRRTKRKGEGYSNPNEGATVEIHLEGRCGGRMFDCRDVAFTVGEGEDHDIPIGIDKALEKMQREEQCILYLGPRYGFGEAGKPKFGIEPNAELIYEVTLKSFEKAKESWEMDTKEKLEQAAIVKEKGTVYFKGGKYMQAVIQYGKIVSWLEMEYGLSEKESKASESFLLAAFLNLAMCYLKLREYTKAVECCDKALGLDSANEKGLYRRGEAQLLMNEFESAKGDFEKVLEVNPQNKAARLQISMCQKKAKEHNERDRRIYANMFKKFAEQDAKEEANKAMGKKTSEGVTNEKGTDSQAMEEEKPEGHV

[3] = biological target: T3, AH receptor-interacting protein (Homo sapiens, UniProt O00170); assay: Inhibition of GST-tagged human AIP expressed in Escherichia coli BL21 (DE3) using NH2-EDASRMEEVD-COOH peptide as substrate preincubated for 15 mins followed by substrate addition measured after 15 mins by Alpha Screen assay
T3 sequence (O00170 whole entry): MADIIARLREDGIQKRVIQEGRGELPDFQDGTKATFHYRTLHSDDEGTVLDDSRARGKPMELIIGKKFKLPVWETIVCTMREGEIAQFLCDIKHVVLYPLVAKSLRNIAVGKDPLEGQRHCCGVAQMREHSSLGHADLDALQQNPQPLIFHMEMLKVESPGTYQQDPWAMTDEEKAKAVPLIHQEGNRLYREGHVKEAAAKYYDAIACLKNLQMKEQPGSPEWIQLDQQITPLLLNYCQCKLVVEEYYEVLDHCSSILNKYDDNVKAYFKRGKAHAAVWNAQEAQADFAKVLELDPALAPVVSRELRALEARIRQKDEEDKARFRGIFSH

[4] = Inhibition of GST-tagged FKBP51 Y355F mutant (unknown origin) using NH2-EDASRMEEVD-COOH peptide as substrate preincubated for 15 mins followed by substrate addition measured after 15 mins by Alpha Screen assay; design: species or system Homo sapiens
[5] = biological target: T4, Mitochondrial import receptor subunit TOM70 (Homo sapiens, UniProt O94826); assay: Inhibition of GST-tagged human TOM70 expressed in Escherichia coli BL21 (DE3) using NH2-EDASRMEEVD-COOH peptide as substrate preincubated for 15 mins followed by substrate addition measured after 15 mins by Alpha Screen assay
T4 sequence (O94826 whole entry): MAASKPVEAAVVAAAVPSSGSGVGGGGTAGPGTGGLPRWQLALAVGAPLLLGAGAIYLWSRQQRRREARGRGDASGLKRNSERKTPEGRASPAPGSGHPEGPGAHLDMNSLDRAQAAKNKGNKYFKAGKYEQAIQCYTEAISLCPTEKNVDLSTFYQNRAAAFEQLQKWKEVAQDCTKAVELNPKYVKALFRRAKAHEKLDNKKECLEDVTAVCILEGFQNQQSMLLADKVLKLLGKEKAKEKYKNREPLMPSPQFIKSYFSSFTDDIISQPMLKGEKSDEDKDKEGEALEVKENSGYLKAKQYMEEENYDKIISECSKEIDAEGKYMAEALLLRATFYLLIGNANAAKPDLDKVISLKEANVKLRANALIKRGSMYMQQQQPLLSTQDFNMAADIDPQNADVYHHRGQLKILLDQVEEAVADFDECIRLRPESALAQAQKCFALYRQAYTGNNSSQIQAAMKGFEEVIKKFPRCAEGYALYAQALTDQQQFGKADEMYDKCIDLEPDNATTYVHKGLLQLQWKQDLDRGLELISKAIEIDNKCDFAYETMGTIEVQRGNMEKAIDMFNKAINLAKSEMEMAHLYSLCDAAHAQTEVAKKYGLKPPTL

[6] = Inhibition of GST-tagged FKBP51 N381Y mutant (unknown origin) using NH2-EDASRMEEVD-COOH peptide as substrate preincubated for 15 mins followed by substrate addition measured after 15 mins by Alpha Screen assay; design: species or system Homo sapiens
[7] = biological target: Stress-induced-phosphoprotein 1 (Homo sapiens, UniProt P31948); assay: Inhibition of GST-tagged human HOP expressed in Escherichia coli BL21 (DE3) using NH2-EDASRMEEVD-COOH peptide as substrate preincubated for 15 mins followed by substrate addition measured after 15 mins by Alpha Screen assay
Stress-induced-phosphoprotein 1, sequence (P31948 whole entry): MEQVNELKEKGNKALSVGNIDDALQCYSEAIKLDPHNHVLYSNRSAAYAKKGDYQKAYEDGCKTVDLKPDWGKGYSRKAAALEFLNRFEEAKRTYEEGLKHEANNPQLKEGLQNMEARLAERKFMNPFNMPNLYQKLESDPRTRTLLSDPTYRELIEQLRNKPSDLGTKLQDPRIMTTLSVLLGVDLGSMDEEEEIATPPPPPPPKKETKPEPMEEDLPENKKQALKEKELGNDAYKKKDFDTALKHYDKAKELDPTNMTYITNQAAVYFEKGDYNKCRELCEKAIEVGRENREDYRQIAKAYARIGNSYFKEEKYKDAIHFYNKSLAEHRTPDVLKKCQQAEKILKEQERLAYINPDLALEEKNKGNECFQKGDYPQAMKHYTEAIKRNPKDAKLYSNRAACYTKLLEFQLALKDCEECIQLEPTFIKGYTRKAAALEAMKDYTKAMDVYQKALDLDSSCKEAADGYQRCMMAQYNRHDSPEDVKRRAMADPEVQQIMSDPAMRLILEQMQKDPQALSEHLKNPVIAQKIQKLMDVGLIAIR

[8] = buffer
Description: Solubility of compound in aqueous solution

[9] = biological target: Small glutamine-rich tetratricopeptide repeat-containing protein alpha (Homo sapiens, UniProt O43765); assay: Inhibition of GST-tagged human SGTA expressed in Escherichia coli BL21 (DE3) using NH2-EDASRMEEVD-COOH peptide as substrate preincubated for 15 mins followed by substrate addition measured after 15 mins by Alpha Screen assay
Small glutamine-rich tetratricopeptide repeat-containing protein alpha, sequence (O43765 whole entry): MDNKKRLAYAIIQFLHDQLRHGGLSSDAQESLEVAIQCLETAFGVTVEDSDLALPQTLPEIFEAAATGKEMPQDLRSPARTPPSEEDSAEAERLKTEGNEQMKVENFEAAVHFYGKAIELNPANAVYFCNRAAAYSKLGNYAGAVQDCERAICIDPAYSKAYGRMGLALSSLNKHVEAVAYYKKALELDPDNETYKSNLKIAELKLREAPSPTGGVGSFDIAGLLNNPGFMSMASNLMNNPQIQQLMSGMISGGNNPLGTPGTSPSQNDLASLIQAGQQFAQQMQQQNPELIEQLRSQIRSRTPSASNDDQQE

[10] = biological target: T5, E3 ubiquitin-protein ligase CHIP (Homo sapiens, UniProt Q9UNE7); assay: Inhibition of GST-tagged human CHIP expressed in Escherichia coli BL21 (DE3) using NH2-EDASRMEEVD-COOH peptide as substrate preincubated for 15 mins followed by substrate addition measured after 15 mins by Alpha Screen assay
T5 sequence (Q9UNE7 whole entry): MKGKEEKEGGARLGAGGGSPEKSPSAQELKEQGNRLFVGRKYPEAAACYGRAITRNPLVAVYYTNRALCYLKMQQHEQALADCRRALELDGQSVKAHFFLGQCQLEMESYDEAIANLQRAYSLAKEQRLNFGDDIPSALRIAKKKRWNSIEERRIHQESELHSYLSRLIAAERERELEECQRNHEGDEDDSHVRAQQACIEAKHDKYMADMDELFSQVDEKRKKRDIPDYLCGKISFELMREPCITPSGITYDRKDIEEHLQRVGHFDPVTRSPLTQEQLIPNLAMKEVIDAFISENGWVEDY

[11] = biological target: T6, Serine/threonine-protein phosphatase 5 (Homo sapiens, UniProt P53041); assay: Inhibition of GST-tagged human PP5 expressed in Escherichia coli BL21 (DE3) using NH2-EDASRMEEVD-COOH peptide as substrate preincubated for 15 mins followed by substrate addition measured after 15 mins by Alpha Screen assay
T6 sequence (P53041 whole entry): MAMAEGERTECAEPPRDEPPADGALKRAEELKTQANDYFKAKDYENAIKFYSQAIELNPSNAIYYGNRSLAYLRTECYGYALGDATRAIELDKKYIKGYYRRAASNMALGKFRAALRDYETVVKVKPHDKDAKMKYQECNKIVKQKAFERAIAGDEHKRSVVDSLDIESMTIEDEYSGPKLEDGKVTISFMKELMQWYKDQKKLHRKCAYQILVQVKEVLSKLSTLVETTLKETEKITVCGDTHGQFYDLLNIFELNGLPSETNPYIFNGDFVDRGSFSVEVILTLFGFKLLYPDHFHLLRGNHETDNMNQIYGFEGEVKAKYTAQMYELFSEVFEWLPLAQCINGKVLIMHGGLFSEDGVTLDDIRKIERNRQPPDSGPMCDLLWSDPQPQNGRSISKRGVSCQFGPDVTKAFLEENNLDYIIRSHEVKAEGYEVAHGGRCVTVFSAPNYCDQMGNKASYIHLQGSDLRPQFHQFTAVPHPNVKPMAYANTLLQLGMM

[12] = biological target: T7, DnaJ homolog subfamily C member 7 (Homo sapiens, UniProt Q99615); assay: Inhibition of GST-tagged human DNAJC7 expressed in Escherichia coli BL21 (DE3) using NH2-EDASRMEEVD-COOH peptide as substrate preincubated for 15 mins followed by substrate addition measured after 15 mins by Alpha Screen assay
T7 sequence (Q99615 whole entry): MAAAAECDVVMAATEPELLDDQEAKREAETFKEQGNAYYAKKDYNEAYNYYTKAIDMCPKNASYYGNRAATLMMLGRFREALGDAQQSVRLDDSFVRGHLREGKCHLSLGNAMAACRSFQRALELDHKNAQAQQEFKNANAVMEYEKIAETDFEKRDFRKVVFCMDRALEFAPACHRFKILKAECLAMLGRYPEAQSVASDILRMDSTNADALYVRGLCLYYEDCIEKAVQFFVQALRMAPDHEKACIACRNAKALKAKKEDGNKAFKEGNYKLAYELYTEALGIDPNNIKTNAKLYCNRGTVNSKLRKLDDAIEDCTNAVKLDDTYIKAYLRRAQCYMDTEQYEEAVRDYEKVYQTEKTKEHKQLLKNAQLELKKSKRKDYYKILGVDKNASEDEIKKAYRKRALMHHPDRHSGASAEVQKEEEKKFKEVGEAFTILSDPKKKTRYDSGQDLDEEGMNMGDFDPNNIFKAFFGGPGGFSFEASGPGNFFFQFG

In the case of CCC(=O)Nc1ccc(NC(=O)CSc2nc3cc4c(cc3cc2C)CCC4)cc1, the IC50 [1] is reported as 3 µM.
CCOC(=O)c1c(NC(=O)CSc2n[nH]c(CNc3ccccc3)n2)sc(C)c1C showed an IC50 [1] of 8 µM.
Work on CCc1nnc(NC(=O)CSc2nc(-c3ccc(C)cc3)cc(-c3ccc(OC)cc3)c2C#N)o1 yielded an IC50 [1] of 3 µM and an IC50 [2] of 2000 nM.
With CCOC(=O)c1c(NC(=O)CSc2nnc(-c3cccc(O)c3)o2)sc(C)c1C the IC50 [1] was 3 µM.
For CCOC(=O)CC(=O)CSc1nc(C)c2cc(OCC)ccc2n1, the IC50 [1] was 9 µM.
CCC1CCc2c(sc(NC(=O)CCCC(=O)Nc3sc4c(c3C(N)=O)CCC(CC)C4)c2C(N)=O)C1 (stereo not drawn) showed an IC50 [3] of 10 µM, an IC50 [4] of 40 µM and an IC50 [5] of 1500 nM. For the same molecule, the solubility was “Insoluble”, the IC50 [6] was 50 nM and the IC50 [7] was 10 µM. The solubility [8] was “Insoluble”, the IC50 [9] was 100 nM and the IC50 [10] was 1000 nM. The IC50 [11] was 30 nM and the IC50 [12] was 1000 nM.
Work on CCS(=O)(=O)Nc1ccc(-c2nnc(SCC(=O)c3c(C)c(C)cc(C)c3C)o2)cc1 yielded an IC50 [1] of 6 µM.
For Cc1ccc(NC(=O)c2cc(NC(=O)c3ccccc3)cc(NC(=O)c3ccccc3)c2)cc1C, the IC50 [1] was > 100 µM.
O=C(CSc1nnc(-c2ccc(S(=O)(=O)N3CCCC3)cc2)o1)Nc1ccc(F)cc1 gave an IC50 [1] of 6 µM.
For CCOc1ccc2cc(C#N)c(SCC(=O)NCCc3ccccc3)nc2c1, the IC50 [1] was 5 µM.
CCOc1ccc2cc(C#N)c(SCC(=O)Nc3cccc(F)c3)nc2c1 gave an IC50 [1] of 6 µM.
In the case of CCC(=O)Nc1ccc(NC(=O)CSc2nc3cc4c(cc3cc2C)CCC4)cc1C, the IC50 [1] is reported as 5 µM.
